Reference: paper PMC11817140, “Characterization of Novel Plantaricin-Derived Antiviral Peptides Against Flaviviruses” (International Journal of Molecular Sciences, 2025)
Values joined by “and” are separate entries in the source; they are usually repeats but may differ in a detail not shown here. Equal entries are not always repeated.

tested on: West Nile virus Kunjin strain (KUNV); assay: Plaque reduction assay in Vero cells after pre-incubating virus with peptide; format: cell-based; settings: 10 µM peptide, KUNV 1 × 10^5 PFU exposed in DMEM for 1 h at room temperature, then Vero cells 1 h, overlay, 3 days, mean with SD of three independent experiments
Procedure: The antiviral activity of the synthesized peptides was evaluated using plaque reduction assays in Vero cells against West Nile virus Kunjin strain (KUNV, accession number AY274504). Vero cells (Vero E6, ATCC, CRL-1586, Manassas, VA, USA) were maintained in Dulbecco’s Modified Eagle Medium (DMEM, Thermo Fisher Scientific, Gibco, Göteborg, Sweden), supplemented with 10% fetal bovine serum (FBS, Thermo Fisher Scientific, Gibco, Göteborg, Sweden) and antibiotics (PEST, Thermo Fisher Scientific, Gibco, Göteborg, Sweden). For the antiviral assays, Vero cells were seeded in 24-well plates and allowed to reach confluency. The virus suspension (1 × 10^5 PFU) was pre-incubated with the peptides at 10 µM concentration or lower (in the combination experiment) for 1 h at room temperature. The peptide–virus mixtures were then added to the Vero cell monolayers and incubated for 1 h at 37 °C. Following incubation, the inoculum was removed, and cells were overlaid with Avicel 2.4% overlay media (FMC, Philadelphia, PA, USA). Plates were incubated for 3 days at 37 °C in a CO2 incubator. Post-incubation, cells were fixed with 100% methanol and stained with 1% crystal violet to visualize and count viral plaques. The reduction in plaque numbers compared to control wells (virus without peptide) was used to quantify antiviral activity.

Row | Substance | KUNV (% Reduction)
1 | β7-34: truncated peptide derived from PLNC8 β (YTLGIKILWSAYKHRKTIEKSFNKGFYH) | 52 ± 27%
2 | β28-34: truncated peptide derived from PLNC8 β (FNKGFYH) | 11 ± 15%
3 | β7-20: truncated peptide derived from PLNC8 β (YTLGIKILWSAYKH) | 65 ± 20%
4 | β21-34: truncated peptide derived from PLNC8 β (RKTIEKSFNKGFYH) | 0 ± 0%
5 | β14-34: truncated peptide derived from PLNC8 β (LWSAYKHRKTIEKSFNKGFYH) | 5 ± 0.2%
6 | AYSLQMGATAIKQVKKLFKKWGW [PlnA, full-length plantaricin A, peptide pheromone of Lactobacillus plantarum C11, reference compound] | 27 ± 9%
7 | FNRGGYNFGKSVRHVVDAIGSVAGIRGILKSIR [PlnE, full-length peptide E of two-peptide plantaricin EF, reference compound] | 24 ± 6%
8 | SVPTSVYTLGIKILRSARKFGKVIEKSFNKGFYH [β15, modified peptide derived from PLNC8 β] | 9 ± 13%
9 | α9-22: truncated peptide derived from PLNC8 α (SWGYYLGKKARWNL) | 7 ± 7%
10 | SVPTSVYTLGIKILWSARKFGKVIEKSFNKGFYH [β16, modified peptide derived from PLNC8 β] | 84 ± 8%
11 | β4-17: truncated peptide derived from PLNC8 β (TSVYTLGIKILWSA) | 56 ± 32%
12 | β14-20: truncated peptide derived from PLNC8 β (LWSAYKH) | 3 ± 4%
13 | α16-22: truncated peptide derived from PLNC8 α (KKARWNL) | 3 ± 6%
14 | RRSRKNGIGYAIGYAFGAVERAVLGGSRDYNK [PlnK, full-length peptide K of two-peptide plantaricin JK, reference compound] | 18 ± 9%
15 | α1-8: truncated peptide derived from PLNC8 α (DLTTKLWS) | 20 ± 18%
16 | β10-17: truncated peptide derived from PLNC8 β (GIKILWSA) | 0 ± 0%
17 | α23-29: truncated peptide derived from PLNC8 α (KHPYVQF) | 10 ± 4%

Row | Substance | KUNV (% Reduction)
18 | GAWKNFWSSLRKGFYDGEAGRAIRR [PlnJ, full-length peptide J of two-peptide plantaricin JK, reference compound] | 30 ± 8%
19 | α16-29: truncated peptide derived from PLNC8 α (KKARWNLKHPYVQF) | 2 ± 0%
20 | β7-13: truncated peptide derived from PLNC8 β (YTLGIKI) | 8 ± 4%
21 | α1-22: truncated peptide derived from PLNC8 α (DLTTKLWSSWGYYLGKKARWNL) | 28 ± 2%
22 | α1-15: truncated peptide derived from PLNC8 α (DLTTKLWSSWGYYLG) | 91 ± 2%
23 | SVPTSVYLLGIKILWSARKFGKVIEKSFNKGFYH [β17, modified peptide derived from PLNC8 β] | 14 ± 12%
24 | β1-6: truncated peptide derived from PLNC8 β (SVPTSV) | 21 ± 22%
25 | SVPTSVYLLGIKILWKARKFGKVIEKSFNKGFYH [β18, modified peptide derived from PLNC8 β] | 12 ± 1%
26 | VFHAYSARGVRNNYKSAVGPADWVISAVRGFIHG [PlnF, full-length peptide F of two-peptide plantaricin EF, reference compound] | 24 ± 6%
27 | α9-29: truncated peptide derived from PLNC8 α (SWGYYLGKKARWNLKHPYVQF) | 10 ± 6%
28 | β1-13: truncated peptide derived from PLNC8 β (SVPTSVYTLGIKI) | 5 ± 7%
29 | SVPTSVYTLGQKILRSARKFGKTIEKSFNKGFYH [β13, modified peptide derived from PLNC8 β] | 8 ± 11%
30 | SVPTSVYTLGQKILRSARKFGKDIEKSFNKGFYH [β14, modified peptide derived from PLNC8 β] | 6 ± 8%
31 | α9-15: truncated peptide derived from PLNC8 α (SWGYYLG) | 16 ± 7%
32 | DLTTKLWSSWGYYLGKKARWNLKHPYVQF [PLNC8 α, full-length α peptide (29 amino acids) of two-peptide bacteriocin plantaricin NC8 αβ, reference compound] | ~ 35% and 35 ± 2%
33 | SVPTSVYTLGIKILWSAYKHRKTIEKSFNKGFYH [PLNC8 β, full-length β peptide (34 residues) of two-peptide bacteriocin plantaricin NC8 αβ, reference compound] | 70 ± 12%
34 | β1-20: truncated peptide derived from PLNC8 β (SVPTSVYTLGIKILWSAYKH) | 92 ± 4%

same assay, conditions: 10 µM peptide, KUNV 1 × 10^5 PFU exposed in DMEM for 1 h at room temperature, then Vero cells 1 h, overlay, 3 days, mean with SD of three independent experiments, listed as PLNC8 α1-15

Row | Substance | KUNV (% Reduction)
35 | α1-15: truncated peptide derived from PLNC8 α (DLTTKLWSSWGYYLG) | over 90%

same assay, conditions: 10 µM peptide, KUNV 1 × 10^5 PFU exposed in DMEM for 1 h at room temperature, then Vero cells 1 h, overlay, 3 days, mean with SD of three independent experiments, listed as PLNC8 β1-20

Row | Substance | KUNV (% Reduction)
36 | β1-20: truncated peptide derived from PLNC8 β (SVPTSVYTLGIKILWSAYKH) | over 90%
